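Values below derive from 48-hour exposures of cells grown in 96-well plates, with endpoints linearly interpolated between the two concentrations bracketing the appropriate inhibition level. GI50: concentration for 50% inhibition of growth. Definition used: TGI = concentration required for complete inhibition of growth.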
Assays:
Assay in all cases: NCI anticancer screen, dose series, 48 h
786-0 renal = tested on: 786-0 renal
A498 renal = tested on: A498 renal
A549 NSCLC = tested on: A549 NSCLC
ACHN renal = tested on: ACHN renal
BT-549 breast = tested on: BT-549 breast
CAKI-1 renal = tested on: CAKI-1 renal
CCRF-CEM leukemia = tested on: CCRF-CEM leukemia
COLO 205 colon = tested on: COLO 205 colon
DU-145 prostate = tested on: DU-145 prostate
EKVX NSCLC = tested on: EKVX NSCLC
HCC-2998 colon = tested on: HCC-2998 colon
HCT-116 colon = tested on: HCT-116 colon
HCT-15 colon = tested on: HCT-15 colon
HL-60(TB) leukemia = tested on: HL-60(TB) leukemia
HOP-62 NSCLC = tested on: HOP-62 NSCLC
HOP-92 NSCLC = tested on: HOP-92 NSCLC
HS 578T breast = tested on: HS 578T breast
HT29 colon = tested on: HT29 colon
IGROV1 ovarian = tested on: IGROV1 ovarian
K-562 leukemia = tested on: K-562 leukemia
KM12 colon = tested on: KM12 colon
LOX IMVI melanoma = tested on: LOX IMVI melanoma
M14 melanoma = tested on: M14 melanoma
MALME-3M melanoma = tested on: MALME-3M melanoma
MCF7 breast = tested on: MCF7 breast
MDA-MB-435 = tested on: MDA-MB-435
MOLT-4 leukemia = tested on: MOLT-4 leukemia
NCI-H226 lung = tested on: NCI-H226 lung
NCI-H23 lung = tested on: NCI-H23 lung
NCI-H460 lung = tested on: NCI-H460 lung
NCI-H522 lung = tested on: NCI-H522 lung
NCI/ADR-RES ovarian = tested on: NCI/ADR-RES ovarian
OVCAR-3 ovarian = tested on: OVCAR-3 ovarian
OVCAR-4 ovarian = tested on: OVCAR-4 ovarian
OVCAR-5 ovarian = tested on: OVCAR-5 ovarian
OVCAR-8 ovarian = tested on: OVCAR-8 ovarian
PC-3 prostate = tested on: PC-3 prostate
RPMI-8226 leukemia = tested on: RPMI-8226 leukemia
RXF 393 renal = tested on: RXF 393 renal
SF-268 CNS = tested on: SF-268 CNS
SF-295 CNS = tested on: SF-295 CNS
SF-539 CNS = tested on: SF-539 CNS
SK-MEL-28 melanoma = tested on: SK-MEL-28 melanoma
SK-MEL-5 melanoma = tested on: SK-MEL-5 melanoma
SK-OV-3 ovarian = tested on: SK-OV-3 ovarian
SN12C renal = tested on: SN12C renal
SNB-19 CNS = tested on: SNB-19 CNS
SNB-75 CNS = tested on: SNB-75 CNS
SW-620 colon = tested on: SW-620 colon
T-47D breast = tested on: T-47D breast
TK-10 renal = tested on: TK-10 renal
U251 CNS = tested on: U251 CNS
UACC-257 melanoma = tested on: UACC-257 melanoma
UACC-62 melanoma = tested on: UACC-62 melanoma
UO-31 renal = tested on: UO-31 renal

CN(C)CCNc1c2c(c(NCCN(C)C)c3[nH]ccc13)C(=O)c1ccccc1C2=O
GI50 (786-0 renal): 899 nM
GI50 (A498 renal): 11300 nM
TGI (A498 renal): 25100 nM
GI50 (A549 NSCLC): 748 nM
TGI (A549 NSCLC): 13300 nM
GI50 (ACHN renal): 476 nM
TGI (ACHN renal): 5560 nM
GI50 (BT-549 breast): 1080 nM
TGI (BT-549 breast): 3040 nM
GI50 (CAKI-1 renal): 2560 nM
TGI (CAKI-1 renal): 6720 nM
GI50 (CCRF-CEM leukemia): 281 nM
GI50 (COLO 205 colon): 4320 nM
TGI (COLO 205 colon): > 100000 nM
GI50 (DU-145 prostate): 587 nM
TGI (DU-145 prostate): 3100 nM
GI50 (EKVX NSCLC): 903 nM
TGI (EKVX NSCLC): 2650 nM
GI50 (HCC-2998 colon): 393 nM
TGI (HCC-2998 colon): 3280 nM
GI50 (HCT-116 colon): 281 nM
GI50 (HCT-15 colon): 168 nM
TGI (HCT-15 colon): 3550 nM
GI50 (HL-60(TB) leukemia): 1390 nM
GI50 (HOP-62 NSCLC): 894 nM
TGI (HOP-62 NSCLC): 9270 nM
GI50 (HOP-92 NSCLC): 6080 nM
TGI (HOP-92 NSCLC): 28500 nM
GI50 (HS 578T breast): 2740 nM
TGI (HS 578T breast): 9260 nM
GI50 (HT29 colon): 465 nM
GI50 (IGROV1 ovarian): 1190 nM
TGI (IGROV1 ovarian): > 100000 nM
GI50 (K-562 leukemia): 654 nM
GI50 (KM12 colon): 347 nM
TGI (KM12 colon): 2260 nM
GI50 (LOX IMVI melanoma): 737 nM
TGI (LOX IMVI melanoma): 3390 nM
GI50 (M14 melanoma): 3680 nM
TGI (M14 melanoma): 29900 nM
GI50 (MALME-3M melanoma): 3300 nM
TGI (MALME-3M melanoma): 11900 nM
GI50 (MCF7 breast): 371 nM
GI50 (MDA-MB-435): 1540 nM
TGI (MDA-MB-435): 5140 nM
GI50 (MOLT-4 leukemia): 199 nM
GI50 (NCI-H226 lung): 5030 nM
TGI (NCI-H226 lung): 15800 nM
GI50 (NCI-H23 lung): 1820 nM
GI50 (NCI-H460 lung): 462 nM
TGI (NCI-H460 lung): 2870 nM
GI50 (NCI-H522 lung): 3300 nM
TGI (NCI-H522 lung): > 100000 nM
GI50 (NCI/ADR-RES ovarian): 887 nM
GI50 (OVCAR-3 ovarian): 639 nM
TGI (OVCAR-3 ovarian): 6590 nM
GI50 (OVCAR-4 ovarian): 1050 nM
TGI (OVCAR-4 ovarian): 3110 nM
GI50 (OVCAR-5 ovarian): 2100 nM
TGI (OVCAR-5 ovarian): 13000 nM
GI50 (OVCAR-8 ovarian): 532 nM
TGI (OVCAR-8 ovarian): 9210 nM
GI50 (PC-3 prostate): 609 nM
TGI (PC-3 prostate): 11100 nM
GI50 (RPMI-8226 leukemia): 737 nM
TGI (RPMI-8226 leukemia): 2790 nM
GI50 (RXF 393 renal): 1500 nM
TGI (RXF 393 renal): 3630 nM
GI50 (SF-268 CNS): 1390 nM
TGI (SF-268 CNS): 5910 nM
GI50 (SF-295 CNS): 693 nM
TGI (SF-295 CNS): 3250 nM
GI50 (SF-539 CNS): 1010 nM
TGI (SF-539 CNS): 3800 nM
GI50 (SK-MEL-28 melanoma): 3100 nM
TGI (SK-MEL-28 melanoma): 9500 nM
GI50 (SK-MEL-5 melanoma): 1810 nM
TGI (SK-MEL-5 melanoma): 3880 nM
GI50 (SK-OV-3 ovarian): 5570 nM
TGI (SK-OV-3 ovarian): 17700 nM
GI50 (SN12C renal): 519 nM
TGI (SN12C renal): 2610 nM
GI50 (SNB-19 CNS): 930 nM
TGI (SNB-19 CNS): 12100 nM
GI50 (SNB-75 CNS): 2750 nM
TGI (SNB-75 CNS): 30600 nM
GI50 (SW-620 colon): 385 nM
TGI (SW-620 colon): 2970 nM
GI50 (T-47D breast): 2870 nM
TGI (T-47D breast): > 21200 nM
GI50 (TK-10 renal): 1570 nM
TGI (TK-10 renal): 5140 nM
GI50 (U251 CNS): 507 nM
TGI (U251 CNS): 15900 nM
GI50 (UACC-257 melanoma): 4710 nM
TGI (UACC-257 melanoma): 19000 nM
GI50 (UACC-62 melanoma): 1640 nM
TGI (UACC-62 melanoma): 14800 nM
GI50 (UO-31 renal): 2280 nM
TGI (UO-31 renal): > 100000 nM

Source: PubChem BioAssay (NCI)
